ChEMBL document CHEMBL4308859, “Discovery of Novel Central Nervous System Penetrant Metabotropic Glutamate Receptor Subtype 2 (mGlu2) Negative Allosteric Modulators (NAMs) Based on Functionalized Pyrazolo[1,5- a]pyrimidine-5-carboxamide and Thieno[3,2- b]pyridine-5-carboxamide Cores” (J Med Chem, 2018)
pIC50: −log10 of the molar value.

Legend:
[1] = target: Metabotropic glutamate receptor 3 (Homo sapiens, UniProt Q14832); assay: Negative allosteric modulation of mGlu3R (unknown origin)
[2] = target: Metabotropic glutamate receptor 2 (Homo sapiens, UniProt Q14416); assay: Negative allosteric modulation of mGlu2R (unknown origin)
Sequence of Metabotropic glutamate receptor 2 (Homo sapiens, UniProt Q14416) (Q14416 whole entry): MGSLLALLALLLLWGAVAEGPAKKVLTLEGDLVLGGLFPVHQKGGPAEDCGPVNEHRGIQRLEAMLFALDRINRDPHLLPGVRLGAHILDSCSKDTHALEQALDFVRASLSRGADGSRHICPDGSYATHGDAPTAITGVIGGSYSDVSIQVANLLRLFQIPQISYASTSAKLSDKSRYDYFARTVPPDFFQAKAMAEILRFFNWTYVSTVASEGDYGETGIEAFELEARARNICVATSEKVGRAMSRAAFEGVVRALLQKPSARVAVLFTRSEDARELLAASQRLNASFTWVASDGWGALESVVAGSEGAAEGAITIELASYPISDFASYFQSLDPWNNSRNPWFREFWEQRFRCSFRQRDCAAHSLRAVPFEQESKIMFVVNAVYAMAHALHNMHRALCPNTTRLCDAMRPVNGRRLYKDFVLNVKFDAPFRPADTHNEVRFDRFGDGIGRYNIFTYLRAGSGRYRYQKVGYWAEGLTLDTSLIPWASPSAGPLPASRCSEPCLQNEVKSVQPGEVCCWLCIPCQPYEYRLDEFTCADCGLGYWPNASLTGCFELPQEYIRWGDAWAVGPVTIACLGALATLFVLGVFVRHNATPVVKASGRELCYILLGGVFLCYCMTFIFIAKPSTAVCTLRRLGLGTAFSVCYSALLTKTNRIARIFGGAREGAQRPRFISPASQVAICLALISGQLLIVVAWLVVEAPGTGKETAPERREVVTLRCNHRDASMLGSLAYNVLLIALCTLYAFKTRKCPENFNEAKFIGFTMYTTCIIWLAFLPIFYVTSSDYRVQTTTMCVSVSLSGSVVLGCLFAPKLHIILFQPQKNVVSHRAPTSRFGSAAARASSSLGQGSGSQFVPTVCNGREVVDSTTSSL

[3] = Brain to plasma partition coefficient, Kp of the compound in rat; format: ADME; conditions: brain and plasma
[4] = target: Metabotropic glutamate receptor 2 (Rattus norvegicus) (UniProt P31421); assay: Negative allosteric modulation of rat mGlu2R expressed in HEK293 cells co-expressing Galpha15 assessed as decrease in glutamate-induced calcium mobilization at 30 uM preincubated for 2.3 mins followed by glutamate addition and measured after 1.7 mins by Fluo-4-AM dye based fluorescence assay relative to control; format: functional, cell-based
Sequence of Metabotropic glutamate receptor 2 (Rattus norvegicus) (P31421 19-872 limits assumed): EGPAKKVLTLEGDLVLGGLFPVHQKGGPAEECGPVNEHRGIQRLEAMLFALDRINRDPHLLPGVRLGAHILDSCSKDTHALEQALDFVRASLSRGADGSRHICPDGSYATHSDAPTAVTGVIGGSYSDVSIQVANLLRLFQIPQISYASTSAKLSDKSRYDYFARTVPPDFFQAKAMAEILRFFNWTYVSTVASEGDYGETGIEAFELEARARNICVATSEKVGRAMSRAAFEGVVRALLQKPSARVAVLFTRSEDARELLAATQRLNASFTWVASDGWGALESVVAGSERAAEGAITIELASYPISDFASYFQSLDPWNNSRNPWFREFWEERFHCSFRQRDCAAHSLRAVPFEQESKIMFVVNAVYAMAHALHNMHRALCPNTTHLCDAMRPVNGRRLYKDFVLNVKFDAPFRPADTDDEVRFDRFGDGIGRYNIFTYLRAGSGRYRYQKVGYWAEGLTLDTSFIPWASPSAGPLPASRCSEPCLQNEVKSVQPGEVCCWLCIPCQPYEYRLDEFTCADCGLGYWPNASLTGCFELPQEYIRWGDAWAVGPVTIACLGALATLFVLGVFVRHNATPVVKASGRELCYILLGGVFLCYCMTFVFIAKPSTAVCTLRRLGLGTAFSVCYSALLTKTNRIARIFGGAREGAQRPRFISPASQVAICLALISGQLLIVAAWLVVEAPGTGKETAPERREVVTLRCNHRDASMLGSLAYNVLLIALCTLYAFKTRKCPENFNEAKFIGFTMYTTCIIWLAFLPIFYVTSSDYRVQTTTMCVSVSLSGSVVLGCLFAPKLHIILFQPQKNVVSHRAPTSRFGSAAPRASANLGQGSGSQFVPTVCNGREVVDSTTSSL

[5] = target: Metabotropic glutamate receptor 2 (Rattus norvegicus, UniProt P31421); assay: Negative allosteric modulation of rat mGlu2R expressed in HEK293 cells co-expressing Galpha15 assessed as decrease in glutamate-induced calcium mobilization preincubated for 2.3 mins followed by glutamate addition and measured after 1.7 mins by Fluo-4-AM dye based fluorescence assay; format: functional, cell-based
Sequence of Metabotropic glutamate receptor 2 (Rattus norvegicus, UniProt P31421) (P31421 whole entry): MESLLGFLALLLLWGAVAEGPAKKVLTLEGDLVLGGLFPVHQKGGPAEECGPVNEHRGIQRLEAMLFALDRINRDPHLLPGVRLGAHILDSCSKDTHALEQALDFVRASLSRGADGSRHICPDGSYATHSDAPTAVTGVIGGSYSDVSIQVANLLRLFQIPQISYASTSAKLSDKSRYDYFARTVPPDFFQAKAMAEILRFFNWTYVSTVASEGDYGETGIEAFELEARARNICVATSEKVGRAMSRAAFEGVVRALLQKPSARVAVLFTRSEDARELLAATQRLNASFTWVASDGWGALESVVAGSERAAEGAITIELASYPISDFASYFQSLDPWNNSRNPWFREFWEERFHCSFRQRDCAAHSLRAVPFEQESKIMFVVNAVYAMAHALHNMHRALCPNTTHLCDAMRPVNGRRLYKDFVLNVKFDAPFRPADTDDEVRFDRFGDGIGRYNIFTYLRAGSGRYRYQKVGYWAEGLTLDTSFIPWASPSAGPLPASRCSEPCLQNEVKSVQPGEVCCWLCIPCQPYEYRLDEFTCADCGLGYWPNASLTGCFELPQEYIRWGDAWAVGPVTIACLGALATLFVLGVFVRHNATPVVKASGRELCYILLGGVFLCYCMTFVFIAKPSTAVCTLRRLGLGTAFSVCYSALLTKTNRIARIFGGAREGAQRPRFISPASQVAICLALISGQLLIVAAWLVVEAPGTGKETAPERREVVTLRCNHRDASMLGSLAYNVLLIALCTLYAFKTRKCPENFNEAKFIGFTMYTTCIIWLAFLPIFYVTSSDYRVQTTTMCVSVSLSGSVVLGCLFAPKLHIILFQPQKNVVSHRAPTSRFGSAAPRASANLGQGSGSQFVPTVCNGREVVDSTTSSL

[6] = Fraction unbound in human plasma after 4 hrs by equilibrium dialysis method; format: ADME, cell-free
[7] = Unbound brain to plasma ratio in Sprague-Dawley rat at 0.2 mg/kg, iv administered as cassette dose by LC-MS/MS analysis; format: ADME, organism-based; conditions: brain and plasma, read-out: K(p,uu,brain)
[8] = Fraction unbound in rat plasma after 4 hrs by equilibrium dialysis method; format: ADME, cell-free
[9] = Fraction unbound in rat brain; format: ADME, tissue-based
[10] = Brain to plasma partition coefficient, Kp of the compound in Sprague-Dawley rat at 0.2 mg/kg, iv administered as cassette dose by LC-MS/MS analysis; format: ADME, organism-based; conditions: brain and plasma
[11] = Plasma clearance in Sprague-Dawley rat at 0.2 mg/kg, iv administered as cassette dose by LC-MS/MS analysis; format: ADME, organism-based
[12] = Half life in Sprague-Dawley rat at 0.2 mg/kg, iv administered as cassette dose by LC-MS/MS analysis; format: ADME, organism-based; conditions: Sprague-Dawley, in vivo
[13] = Volume of distribution at steady state in Sprague-Dawley rat at 0.2 mg/kg, iv administered as cassette dose by LC-MS/MS analysis; format: ADME, organism-based; conditions: in vivo, read-out: Vdss
[14] = target: Metabotropic glutamate receptor 6 (Homo sapiens, UniProt O15303); assay: Negative allosteric modulation of mGlu6R (unknown origin)
[15] = target: Metabotropic glutamate receptor 7 (Homo sapiens, UniProt Q14831); assay: Negative allosteric modulation of mGlu7R (unknown origin)
Sequence of Metabotropic glutamate receptor 7 (Q14831 whole entry): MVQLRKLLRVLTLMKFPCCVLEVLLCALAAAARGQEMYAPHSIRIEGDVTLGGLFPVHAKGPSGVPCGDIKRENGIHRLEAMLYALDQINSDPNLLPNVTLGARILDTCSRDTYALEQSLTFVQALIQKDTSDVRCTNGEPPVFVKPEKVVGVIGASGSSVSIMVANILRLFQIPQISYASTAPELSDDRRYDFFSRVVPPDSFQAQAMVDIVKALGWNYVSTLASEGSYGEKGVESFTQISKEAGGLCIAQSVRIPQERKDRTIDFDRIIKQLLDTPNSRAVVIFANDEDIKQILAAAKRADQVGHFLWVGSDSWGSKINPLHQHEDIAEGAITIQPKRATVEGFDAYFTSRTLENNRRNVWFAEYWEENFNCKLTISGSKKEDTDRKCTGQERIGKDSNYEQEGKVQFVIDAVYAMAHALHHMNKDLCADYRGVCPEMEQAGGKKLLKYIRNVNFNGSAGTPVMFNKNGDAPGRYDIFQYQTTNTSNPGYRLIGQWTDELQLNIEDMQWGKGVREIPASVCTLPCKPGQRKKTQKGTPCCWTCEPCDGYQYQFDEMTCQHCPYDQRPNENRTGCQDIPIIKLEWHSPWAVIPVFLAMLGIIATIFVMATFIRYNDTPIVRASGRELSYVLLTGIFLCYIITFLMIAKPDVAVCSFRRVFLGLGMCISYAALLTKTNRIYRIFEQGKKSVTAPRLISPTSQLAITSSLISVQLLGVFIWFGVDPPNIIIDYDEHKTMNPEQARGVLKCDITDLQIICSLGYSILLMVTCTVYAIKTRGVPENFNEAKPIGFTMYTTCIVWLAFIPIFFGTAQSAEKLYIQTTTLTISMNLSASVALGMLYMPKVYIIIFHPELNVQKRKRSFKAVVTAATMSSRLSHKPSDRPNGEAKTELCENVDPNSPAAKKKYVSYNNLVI

[16] = Plasma clearance in mouse; format: ADME, organism-based
[17] = target: Metabotropic glutamate receptor 8 (Homo sapiens, UniProt O00222); assay: Negative allosteric modulation of mGlu8R (unknown origin)
[18] = target: Metabotropic glutamate receptor 4 (Homo sapiens, UniProt Q14833); assay: Negative allosteric modulation of mGlu4R (unknown origin)
[19] = target: Metabotropic glutamate receptor 1 (Homo sapiens, UniProt Q13255); assay: Negative allosteric modulation of mGlu1R (unknown origin)
[20] = target: Metabotropic glutamate receptor 5 (Homo sapiens, UniProt P41594); assay: Negative allosteric modulation of mGlu5R (unknown origin)

Sequence of Metabotropic glutamate receptor 3 (Q14832 whole entry): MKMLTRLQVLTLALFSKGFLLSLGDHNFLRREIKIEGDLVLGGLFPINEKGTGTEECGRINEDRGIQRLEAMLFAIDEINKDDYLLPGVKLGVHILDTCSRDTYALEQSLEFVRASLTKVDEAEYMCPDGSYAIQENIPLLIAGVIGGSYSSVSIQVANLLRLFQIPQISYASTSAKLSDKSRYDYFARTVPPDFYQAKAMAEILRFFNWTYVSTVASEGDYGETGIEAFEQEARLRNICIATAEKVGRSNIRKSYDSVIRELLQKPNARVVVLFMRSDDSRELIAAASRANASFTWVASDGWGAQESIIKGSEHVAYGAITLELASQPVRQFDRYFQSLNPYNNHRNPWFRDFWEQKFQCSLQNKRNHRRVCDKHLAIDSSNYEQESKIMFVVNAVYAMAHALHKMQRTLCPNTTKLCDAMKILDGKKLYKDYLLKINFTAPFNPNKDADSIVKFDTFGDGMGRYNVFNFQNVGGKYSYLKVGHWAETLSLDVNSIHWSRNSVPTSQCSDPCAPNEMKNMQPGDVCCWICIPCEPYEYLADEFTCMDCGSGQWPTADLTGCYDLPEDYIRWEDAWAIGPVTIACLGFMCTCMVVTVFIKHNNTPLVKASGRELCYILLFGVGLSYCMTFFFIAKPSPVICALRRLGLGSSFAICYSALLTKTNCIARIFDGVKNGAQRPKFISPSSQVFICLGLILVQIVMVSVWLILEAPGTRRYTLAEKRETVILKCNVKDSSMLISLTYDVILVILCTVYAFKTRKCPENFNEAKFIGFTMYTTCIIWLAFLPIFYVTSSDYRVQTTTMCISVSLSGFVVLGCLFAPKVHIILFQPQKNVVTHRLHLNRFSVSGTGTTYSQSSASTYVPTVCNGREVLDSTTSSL

C[C@@H]1CN(Cc2ccc3c(c2)c(=O)c(C(N)=O)cn3-c2ccc(F)cc2)C[C@H](C)O1
pIC50 [1]: < 4.52
pIC50 [2]: 6.68
Kp [3]: 0.3

NC(=O)c1cc(-c2ccc(F)cc2)c2sc(COc3ccnc(C(F)(F)F)c3)cc2n1
Emax [4]: 2.3%
pIC50 [5]: 5.76

COc1ccc(OCc2cc3nc(C(N)=O)cc(-c4ccc(F)cc4)c3s2)cn1
Emax [4]: 16.8%
pIC50 [5]: 5.70

NC(=O)c1cc(-c2ccc(F)cc2)n2nc(CCc3ccnc(C(F)(F)F)c3)cc2n1
Emax [4]: 2.3%
fraction unbound at 4 h [6]: 0.02
Kp uu [7]: 0.59
fraction unbound at 4 h [8]: 0.04
pIC50 [5]: 7.06
fraction unbound [9]: 0.006
Kp [10]: 4.25

NC(=O)c1cc(-c2ccc(F)cc2)c2sc(CN3CCCCC3)cc2n1
Emax [4]: 2.2%
pIC50 [5]: 5.76

Cc1cc(OCc2cc3nc(C(N)=O)cc(-c4ccc(F)cc4)n3n2)ccn1
pIC50 [5]: < 5.00

COc1ccc(-c2cc(C(N)=O)nc3cc(CN4CCOCC4)sc23)c(F)c1
Emax [4]: 2.3%
pIC50 [5]: 5.85

Cn1ccc(OCc2cc3nc(C(N)=O)cc(-c4ccc(F)cc4)c3s2)n1
Emax [4]: 1.9%
pIC50 [5]: 5.82

COc1ccc(-c2cc(C(N)=O)nc3cc(CN4CCOCC4)sc23)cc1
Emax [4]: 2.6%
pIC50 [5]: 5.60

NC(=O)c1cc(-c2ccc(F)cc2)c2sc(CN3CCC(F)(F)CC3)cc2n1
Emax [4]: 2.2%
pIC50 [5]: 5.98

[11CH3]Oc1ccc(-c2cc(C(N)=O)nc3cc(CN4C(=O)CCC4=O)ccc23)c(F)c1
pIC50 [1]: < 4.52
Kp [3]: 0.3

NC(=O)c1cc(-c2ccc(F)cc2)n2nc(CCc3ccncc3)cc2n1
Emax [4]: 2.6%
pIC50 [5]: 5.98

NC(=O)c1cc(-c2ccc(F)cc2)c2sc(COc3cncnc3)cc2n1
Emax [4]: 26.2%
pIC50 [5]: 6.17

NC(=O)c1cc(-c2ccc(F)cc2)c2sc(COc3ccc(F)cc3)cc2n1
pIC50 [5]: < 5.00

COc1ccc(-c2cc(C(N)=O)nc3cc(COc4cnc(C)nc4)sc23)cc1
Emax [4]: 2.6%
Emax ([4]; tested as the 2H-labelled form): 2.8%
fraction unbound at 4 h [6]: 0.01
Kp uu [7]: 0.49
clearance [11]: 389 mL/min/kg
fraction unbound at 4 h [8]: 0.02
half-life [12]: 14.3 min
pIC50 [5]: 6.50
Vd [13]: 6.49 L/kg
fraction unbound [9]: 0.003
Kp [10]: 3.41

COc1ccc(-c2cc(C(N)=O)nc3cc(COc4cnc(C)nc4)sc23)c(F)c1
Emax [4]: 2.7%
pIC50 [5]: 6.37

NC(=O)c1cc(-c2ccc(F)cc2)n2nc(COc3ccnc(Br)c3)cc2n1
Emax [4]: 19.7%
fraction unbound at 4 h [6]: 0.03 to 0.12
Kp uu [7]: 0.4 to 0.6
fraction unbound at 4 h [8]: 0.03 to 0.12
pIC50 [5]: 6.65
fraction unbound [9]: 0.003 to 0.009
Kp [10]: 2.5 to 2.7

NC(=O)c1cc(-c2ccc(F)cc2)c2sc(COc3ccc(C(F)(F)F)nc3)cc2n1
pIC50 [5]: < 5.00

NC(=O)c1cc(-c2ccc(F)cc2)c2sc(CN3CCSCC3)cc2n1
Emax [4]: 2.4%
pIC50 [5]: 5.44

NC(=O)c1cc(-c2ccc(F)cc2)c2sc(CN3CCCC3)cc2n1
Emax [4]: 4.1%
pIC50 [5]: 5.18

NC(=O)c1cc(-c2ccc(F)cc2)c2sc(COc3ccc(Cl)nc3)cc2n1
Emax [4]: 29.3%
Kp uu [7]: < 0.4
pIC50 [5]: 6.06
Kp [10]: > 2

NC(=O)c1cc(-c2ccc(F)cc2)c2sc(CN3CCC3)cc2n1
pIC50 [5]: < 5.00

NC(=O)c1cc(-c2ccc(F)cc2)c2sc(CN3CCOCC3)cc2n1
Emax [4]: 2.9%
pIC50 [5]: 5.41

Cc1ccc(OCc2cc3nc(C(N)=O)cc(-c4ccc(F)cc4)c3s2)c(C)n1
Emax [4]: 3.3%
Kp uu [7]: < 0.4
pIC50 [5]: 6.13
Kp [10]: > 2

Cc1ncc(OCc2cc3nc(C(N)=O)cc(-c4ccc(F)cc4)c3s2)cn1
Emax [4]: 6.9%
pIC50 [5]: 6.23

COc1ccc(-c2cc(C(N)=O)nc3cc(COc4ccnc(C)c4)nn23)c(F)c1
Emax [4]: 35.4%
fraction unbound at 4 h [6]: 0.03 to 0.12
Kp uu [7]: 0.4 to 0.6
fraction unbound at 4 h [8]: 0.03 to 0.12
pIC50 [5]: 6.54
fraction unbound [9]: 0.003 to 0.009
Kp [10]: 2.5 to 2.7

NC(=O)c1cc(-c2ccc(F)cc2)c2sc(COc3ccc(F)nc3)cc2n1
Emax [4]: 13.2%
Kp uu [7]: < 0.4
pIC50 [5]: 6.05
Kp [10]: > 2

NC(=O)c1cc(-c2ccc(F)cc2)n2nc(COc3ccc(C(F)(F)F)nc3)cc2n1
pIC50 [5]: < 5.00

Cc1ccc(OCc2cc3nc(C(N)=O)cc(-c4ccc(F)cc4)c3s2)cn1
Emax [4]: 2.2%
fraction unbound at 4 h [6]: 0.05
Kp uu [7]: 0.2
fraction unbound at 4 h [8]: 0.02
pIC50 [5]: 6.17
fraction unbound [9]: 0.003
Kp [10]: 7.99

Cc1ncccc1OCc1cc2nc(C(N)=O)cc(-c3ccc(F)cc3)c2s1
Emax [4]: 3.2%
Kp uu [7]: < 0.4
pIC50 [5]: 6.12
Kp [10]: > 2

COc1ccc(-c2cc(C(N)=O)nc3cc(COc4ccc(F)nc4)sc23)cc1
Emax [4]: 7.2%
pIC50 [5]: 5.59

COc1ccc(-c2cc(C(N)=O)nc3cc(COc4ccc(C(F)(F)F)nc4)nn23)c(F)c1
Emax [4]: 4.2%
fraction unbound at 4 h [6]: 0.03 to 0.12
Kp uu [7]: 0.4 to 0.6
fraction unbound at 4 h [8]: 0.03 to 0.12
pIC50 [5]: 6.46
fraction unbound [9]: 0.003 to 0.009
Kp [10]: 2.5 to 2.7

NC(=O)c1cc(-c2ccc(F)cc2)n2nc(CCc3cccnc3)cc2n1
Emax [4]: 2.9%
pIC50 [5]: 5.76

Cn1ccc(COc2cnc(C(N)=O)cc2-c2ccc(F)cc2)n1
pIC50 [14]: < 4.52
pIC50 [15]: < 4.52
clearance [16]: 118 mL/min/kg
pIC50 [1]: < 4.52
pIC50 [17]: < 4.52
pIC50 [18]: < 4.52
Kp [3]: 1.9
pIC50 [19]: < 4.52
pIC50 [20]: < 4.52

NC(=O)c1cc(-c2ccc(F)cc2F)n2nc(COc3ccnc(C(F)(F)F)c3)cc2n1
Emax [4]: 1.5%
fraction unbound at 4 h [6]: 0.03 to 0.12
Kp uu [7]: 0.4 to 0.6
fraction unbound at 4 h [8]: 0.03 to 0.12
pIC50 [5]: 6.99
fraction unbound [9]: 0.003 to 0.009
Kp [10]: 2.5 to 2.7

[2H]C([2H])([2H])Oc1ccc(-c2cc(C(N)=O)nc3cc(COc4cnc(C)nc4)sc23)cc1
pIC50 [5]: 6.35

COc1ccc(-c2cc(C(N)=O)nc3cc(COc4ccnc(C(F)(F)F)c4)nn23)c(F)c1
Emax [4]: 2.1%
fraction unbound at 4 h [6]: 0.03 to 0.12
Kp uu [7]: 0.4 to 0.6
fraction unbound at 4 h [8]: 0.03 to 0.12
pIC50 [5]: 6.83
fraction unbound [9]: 0.003 to 0.009
Kp [10]: 2.5 to 2.7

CN(Cc1cc2nc(C(N)=O)cc(-c3ccc(F)cc3)c2s1)C1COC1
Emax [4]: 2.4%
pIC50 [5]: 5.85
